# Measured values reported in patent US10975123B2, “Mutant Akt-specific capture agents, compositions, and methods of using and making” (California Institute of Technology, priority 2014, dated 2021).
# Substitutions are numbered along the chain they refer to. “Also recorded” adds a separate entry of the source. Where a SMILES comes first, the peptide text is derived from it. [ ]: non-standard residue; d: D form.
# Columns and labels:
# [1] = molecular target: T1, E17K mutant PH Domain (PHD) of Akt1 (Homo sapiens, UniProt P31749, E17K); experiment: Streptavidin-agarose immunoprecipitation (pulldown), E17K; type: binding; conditions: streptavidin agarose, 1xTBS, western blot band size, in words
# T1 construct: The first 124 N-terminal amino acids from full length Akt1 were used as the PH Domain DNA; made in house; host or cells: E. coli
# T1 sequence (P31749 1-124 E17K): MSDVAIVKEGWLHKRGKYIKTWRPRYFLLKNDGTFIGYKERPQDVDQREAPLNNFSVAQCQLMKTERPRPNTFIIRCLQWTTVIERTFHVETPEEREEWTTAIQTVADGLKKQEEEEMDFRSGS
# Description: Four biligand candidates were chosen based on their hydrophobicity and sequence homology using principal component analysis (FIG. 25). Biligands were synthesized by coupling the 2° ligand onto Rink Amide Resin on the Titan peptide synthesizer. The amide group on the end of the Lys(N3) was capped by shaking the resin with 2 mL acetic anhydride, 2 mL NMP and 0.5 mL DIEA for 3×10 minutes, then washed with NMP. FMOC-Propargylglycine-Otbu (Pra) was clicked onto the Lys(N3) on the 2° ligand by incubating 2 eq of the Pra amino acid with 2 eq CuI and 2 eq ascorbic acid with 1 eq azide on resin in 20% piperidine/NMP for 3 hours. The resin was washed 5×4 mL with a chelating solution of 1 g sodium diethyldithiocarbamate in 20 mL NMP and 1 mL DIEA. The anchor was then built onto the 2° ligand on bead, and an N-terminal PEG5-biotin tag were added. Assays were performed exactly as for the anchor ligands, except for two key differences. The biligand assays were done with 6 ug of GST-tagged PHD protein, instead of the untagged PHD that was used in the anchor pulldowns. The pull-downs were also conducted out of 1% serum in 1×TBS, as opposed to just 1×TBS.
# Pulldown assays were done on Streptavidin Agarose resin from Invitrogen. The resin was incubated with N-terminal biotinylated anchor peptide candidates identified via the ClusterLigand sequence analysis. The anchor candidate coated beads were then incubated with either the wildtype or mutant protein to compare the selectivity of the ligands, as well as the binding ability. The bound protein was eluted and western blotted to compare the amount of protein present for each sample.
# Relative protein band sizes were analyzed to compare binding between the anchor candidates and were used to determine selectivity for either wildtype or mutant PH Domain (FIG. 11). […] Both of these ligands look fairly selective for their respective PH Domain.
# [2] = molecular target: T2, E17K 33-mer fragment (6His-tagged) (Homo sapiens, UniProt P31749, E17K/H13K); experiment: HPLC-detected immunoprecipitation (pulldown), E17K 33-mer; type: binding; conditions: 50 μM epitope, overnight 4° C., guanidine elution, in words
# T2 construct: made in house; host or cells: chemical synthesis (Fmoc SPPS)
# T2 sequence (P31749 1-33 H13K/E17K limits assumed): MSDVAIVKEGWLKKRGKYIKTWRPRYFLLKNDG
# From the text: (§1) The label-modified yleaf (SEQ ID NO: 43) peptide (FIG. 2a and FIG. 12) was subjected to a variety of binding assays against the synthesized WT and E17K 33-mer PHD fragments prepared without the biotin label and alkyne click handle. First, the yleaf (SEQ ID NO: 43) peptide was used in immunoprecipitation assays to pull-down either the WT or E17K mutant 6His-tagged (SEQ ID NO: 4) 33-mer peptide fragments (FIGS. 13 and 14), as opposed to the full-length proteins that were used to initially validate the candidates. Typical immunoprecipitation assays involve western blotting to estimate the amount of protein binding, but 33-mer peptide fragments are not easily quantified on a blot. Because of this, the amount of peptide epitope precipitated in these assays was quantified via injection on an analytical HPLC. These assays further confirmed preferential yleaf (SEQ ID NO: 43) ligand binding to the E17K 33-mer epitope relative to the WT epitope (FIG. 15).
# (§2) Pulldown assays with the biotinylated anchor and his-tagged 33-mer epitope were performed to verify epitope targeting. […] Because small peptide fragments like the 33-mer epitope are difficult to transfer to and detect on the nitrocellulose membrane as for a traditional Western blot, the amount of binding in these assays was detected via HPLC. […]
# [3] = molecular target: T3, E17K 33-mer epitope (PH Domain fragment of Akt1) (Homo sapiens, UniProt P31749, E17K/H13K); experiment: Fluorescence polarization binding to E17K mutant epitope; conditions: yleaf peptide 4, fluorescence polarization in solution, triplicate
# T3 construct: made in house; host or cells: chemical synthesis (Fmoc SPPS)
# T3 sequence (P31749 1-33 H13K/E17K limits assumed): T2 sequence (P31749 1-33 H13K/E17K limits assumed)
# Description: FIG. 2: Anchor ligand structure and characterization. (FIG. 2A) The peptide anchor ligand, yleaf (SEQ ID NO: 43), which was discovered using the epitope-targeting technique. The different sets of R groups indicate the modifications that were made to perform the various experiments described. (FIG. 2B) Point ELISA for specificity obtained by immobilizing biotinylated yleaf (SEQ ID NO: 43) anchor ligand 2 onto a Neutravidin plate, then incubating with a 6 His-tagged epitope (“6 His” disclosed as SEQ ID NO: 4) 3. […] (FIG. 2C) Binding curves of yleaf (SEQ ID NO: 43) anchor ligand 4 to the full-length WT or E17K mutant Akt1 proteins obtained in solution by fluorescence polarization. A saturation point for the WT ligand was not reached due to the prohibitively high protein concentration required. (FIG. 2D) Full binding curves of yleaf (SEQ ID NO: 43) anchor ligand 4 to the WT or E17K mutant epitopes. […] All assays were performed in triplicate and averaged. Error bars indicate standard deviation.
# The selectivity of the yleaf (SEQ ID NO: 43) peptide for the E17K 33-mer epitope was also tested in an ELISA assay format. For these assays, the WT or E17K 33-mer peptide fragments were captured using the PEG-biotin-modified yleaf (SEQ ID NO: 43) ligand immobilized on a neutravidin-coated plate.
# [4] = molecular target: T4, WT 33-mer fragment (6His-tagged) (Homo sapiens, UniProt P31749, H13K); experiment: HPLC-detected immunoprecipitation (pulldown), WT 33-mer; type: binding; conditions: 50 μM epitope, overnight 4° C., guanidine elution, in words
# T4 construct: made in house; host or cells: chemical synthesis (Fmoc SPPS)
# T4 sequence (P31749 1-33 H13K limits assumed): T2 sequence (P31749 1-33 H13K/E17K limits assumed) with K17E
# From the text: as §1, §2
compound,measurement,setting,value
CC(C)C[C@@H](NC(=O)[C@H](N)Cc1ccc(O)cc1)C(=O)N[C@H](CCC(=O)O)C(=O)N[C@H](C)C(=O)N[C@H](Cc1ccccc1)C(N)=O [yleaf] (H-[dY][dL][dE][dA][dF]-NH2; N-terminus assumed),pulldown of E17K mutant PH Domain by biotinylated anchor candidates,[1],a distinctively stronger binding to the E17K protein relative to the WT; also recorded: the greatest binding to the mutant
same,amount of E17K 33-mer fragment pulled down (HPLC peak),[2],preferential; also recorded: pulls down the most of the E17K 33mer fragment
same,Kd,[3],328 ± 96 nM
same,amount of WT 33-mer fragment pulled down (HPLC peak),[4],the least of the WT fragment
